Measurements as given in patent publication US20230357239A1, “PYRIDO[2,3-D]PYRIMIDIN-4-AMINES AS SOS1 INHIBITORS” (Bayer Aktiengesellschaft, priority 2020, published 2023).

Target: human SOS1 (SOS1) with human K-RasG12C (Homo sapiens (Human), UniProt Q07889)
Test: hK-RasG12C interaction assay with hSOS1 (HTRF)
Type: binding
Conditions: GST-hK-RasG12C and His-hSOS1, 60 min incubation at 20° C, mean, read-out: K-RasG12C - SOS interaction assay IC50 - [mol/l] (mean)
Method: Biochemical Assay: hK-RasG12C Interaction Assay with hSOS1
This assay quantifies the equilibrium interaction of human SOS1 (SOS1) with human K-Ras^G12C (K-RasG12C). Detection of the interaction is achieved by measuring homogenous time-resolved fluorescence resonance energy transfer (HTRF) from antiGST-Europium (FRET donor) bound to GST-K-RasG12C to anti-6His-XL665 bound to His-tagged hSOS1 (FRET-acceptor).
The assay buffer containes 5 mM HEPES pH 7.4 (Applichem), 150 mM NaCl (Sigma), 10 mM EDTA (Promega), 1 mM DTT (Thermofisher), 0.05% BSA Fraction V, pH 7.0, (ICN Biomedicals), 0.0025% (v/v) Igepal (Sigma) and 100 mM KF (FLUKA).
Concentrations of protein batches used are optimized to be within the linear range of the HTRF signal. A Ras working solution is prepared in assay buffer containing typically 10 nM GST-hK-RasG12C and 2 nM antiGST-Eu(K) (Cisbio, France). A SOS1 working solution is prepared in assay buffer containing typically 20 nM His-hSOS1 and 10 nM anti-6His-XL665 (Cisbio, France). An inhibitor control solution is prepared in assay buffer containing 10 nM anti-6His-XL665 without SOS1.
Fifty nl of a 100-fold concentrated solution of the test compound in DMSO are transferred into a black microtiter test plate (384 or 1536, Greiner Bio-One, Germany).
For this, either a Hummingbird liquid handler (Digilab, MA, USA) or an Echo acoustic system (Labcyte, CA, USA) is used.
All steps of the assay are performed at 20° C. A volume of 2.5 μl of the Ras working solution is added to all wells of the test plate using a Multidrop dispenser (Thermo Labsystems). After 2 min preincubation, 2.5 μl of the SOS1 working solution are added to all wells except for those wells at the side of the test plate that are subsequently filled with 2.5 μl of the inhibitor control solution. After 60 min incubation the fluorescence is measured with a Pherastar (BMG, Germany) using the HTRF module (excitation 337 nm, emission 1: 620 nm, emission 2: 665 nm).
The ratiometric data (emission 2 divided by emission 1) are normalized using the controls (DMSO=0% inhibition, inhibition control wells with inhibitor control solution=100% inhibition). […] IC50 values are calculated by 4-Parameter fitting using a commercial software package (Genedata Screener, Switzerland).

Sequence of human SOS1 (SOS1) with human K-RasG12C (Q07889 564-1049): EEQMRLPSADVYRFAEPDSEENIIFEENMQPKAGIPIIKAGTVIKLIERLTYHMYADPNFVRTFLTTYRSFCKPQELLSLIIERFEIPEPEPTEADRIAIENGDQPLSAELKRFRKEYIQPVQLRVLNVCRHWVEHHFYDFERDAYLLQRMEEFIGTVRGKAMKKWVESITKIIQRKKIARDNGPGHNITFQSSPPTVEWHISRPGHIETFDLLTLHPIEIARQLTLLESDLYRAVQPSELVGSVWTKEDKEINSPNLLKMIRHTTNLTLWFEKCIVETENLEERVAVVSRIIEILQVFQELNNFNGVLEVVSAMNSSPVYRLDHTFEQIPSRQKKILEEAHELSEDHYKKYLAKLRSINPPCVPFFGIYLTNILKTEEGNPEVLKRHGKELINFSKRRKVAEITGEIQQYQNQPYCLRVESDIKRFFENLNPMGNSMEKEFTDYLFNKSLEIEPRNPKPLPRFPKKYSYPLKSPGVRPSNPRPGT

| IC50 [nM] | Structure (SMILES) |
| --- | --- |
| 7.71 | CC(=O)N1CCN(c2cnc3nc(C)nc(N[C@H](C)c4cccc(C(F)(F)F)c4C)c3c2)CC1 [Example 35, 1-{4-[2-methyl-4-({(1R)-1-[2-methyl-3-(trifluoromethyl)phenyl]ethyl}amino)pyrido[2,3-d]pyrimidin-6-yl]piperazin-1-yl}ethan-1-one] |
| 25.6 | CC(=O)N1CC2(C1)CN(c1cnc3nc(C)nc(N[C@H](C)c4cccc(C(F)F)c4F)c3c1)C2 [Example 29, 1-{6-[4-({(1R)-1-[3-(difluoromethyl)-2-fluorophenyl]ethyl}amino)-2-methylpyrido[2,3-d]pyrimidin-6-yl]-2,6-diazaspiro[3.3]heptan-2-yl}ethan-1-one] |
| 9.81 | CC(=O)N1CCC(c2cc3c(N[C@H](C)c4cccc(C(F)F)c4F)nc(C)nc3nc2C)CC1 [Example 57, 1-{4-[4-({(1R)-1-[3-(difluoromethyl)-2-fluorophenyl]ethyl}amino)-2,7-dimethylpyrido[2,3-d]pyrimidin-6-yl]piperidin-1-yl}ethan-1-one] |
| 3.52 | CC(=O)N1CC2(C1)CN(c1cnc3nc(C)nc(N[C@H](C)c4cccc(C(F)(F)C(C)(C)O)c4F)c3c1)C2 [Example 54, 1-{6-[4-({(1R)-1-[3-(1,1-difluoro-2-hydroxy-2-methylpropyl)-2-fluorophenyl]ethyl}amino)-2-methylpyrido[2,3-d]pyrimidin-6-yl]-2,6-diazaspiro[3.3]heptan-2-yl}ethan-1-one] |
| 2.7 | CC(=O)N1CC=C(c2cnc3nc(C)nc(N[C@H](C)c4cccc(C(F)(F)C(C)(C)O)c4F)c3c2)CC1 [Example 46, 1-{4-[4-({(1R)-1-[3-(1,1-difluoro-2-hydroxy-2-methylpropyl)-2-fluorophenyl]ethyl}amino)-2-methylpyrido[2,3-d]pyrimidin-6-yl]-3,6-dihydropyridin-1(2H)-yl}ethan-1-one] |
| 3.34 | CC(=O)N1CCN(c2cnc3nc(C)nc(N[C@H](C)c4cccc(C(F)(F)C(C)(C)O)c4F)c3c2)CC1 [Example 53, 1-{4-[4-({(1R)-1-[3-(1,1-difluoro-2-hydroxy-2-methylpropyl)-2-fluorophenyl]ethyl}amino)-2-methylpyrido[2,3-d]pyrimidin-6-yl]piperazin-1-yl}ethan-1-one] |
| 6.35 | CC(=O)N1CC2(C1)CN(c1cnc3nc(C)nc(N[C@H](C)c4cccc(C(F)(F)F)c4C)c3c1)C2 [Example 13, 1-{6-[2-methyl-4-({(1R)-1-[2-methyl-3-(trifluoromethyl)phenyl]ethyl}amino)pyrido[2,3-d]pyrimidin-6-yl]-2,6-diazaspiro[3.3]heptan-2-yl}ethan-1-one-hydrogen chloride (1/1)] |
| 4 | CC(=O)N1CCC(c2cnc3nc(C)nc(N[C@H](C)c4cccc(C(F)(F)C(C)(C)O)c4F)c3c2)CC1 [Example 47, 1-{4-[4-({(1R)-1-[3-(1,1-difluoro-2-hydroxy-2-methylpropyl)-2-fluorophenyl]ethyl}amino)-2-methylpyrido[2,3-d]pyrimidin-6-yl]piperidin-1-yl}ethan-1-one] |
| 8.47 | CC(=O)N1CC2(C1)CN(c1cc3c(N[C@H](C)c4cccc(C(F)F)c4F)nc(C)nc3nc1C)C2 [Example 37, 1-{6-[4-({(1R)-1-[3-(difluoromethyl)-2-fluorophenyl]ethyl}amino)-2,7-dimethylpyrido[2,3-d]pyrimidin-6-yl]-2,6-diazaspiro[3.3]heptan-2-yl}ethan-1-one] |
| 2.93 | CC(=O)N1CCN(c2cc3c(N[C@H](C)c4cccc(C(F)(F)F)c4C)nc(C)nc3nc2C)C(=O)C1 [Example 68, 4-acetyl-1-[2,7-dimethyl-4-({(1R)-1-[2-methyl-3-(trifluoromethyl)phenyl]ethyl}amino)pyrido[2,3-d]pyrimidin-6-yl]piperazin-2-one] |
| 4.46 | CC(=O)N[C@@H]1CCN(c2cnc3nc(C)nc(N[C@H](C)c4cccc(C(F)(F)C(C)(C)O)c4F)c3c2)C1 [Example 55, N-{(3R)-1-[4-({(1R)-1-[3-(1,1-difluoro-2-hydroxy-2-methylpropyl)-2-fluorophenyl]ethyl}amino)-2-methylpyrido[2,3-d]pyrimidin-6-yl]pyrrolidin-3-yl}acetamide] |
| 5.47 | CC(=O)N1CC2(C1)CN(c1cc3c(N[C@H](C)c4cccc(C(F)(F)C(C)(C)O)c4F)nc(C)nc3nc1C(F)(F)F)C2 [Example 70, 1-{6-[4-({(1R)-1-[3-(1,1-difluoro-2-hydroxy-2-methylpropyl)-2-fluorophenyl]ethyl}amino)-2-methyl-7-(trifluoromethyl)pyrido[2,3-d]pyrimidin-6-yl]-2,6-diazaspiro[3.3]heptan-2-yl}ethan-1-one] |
| 38 | CC(=O)N1CC=C(c2cnc3nc(C)nc(N[C@H](C)c4cccc(C(F)(F)F)c4C)c3c2)C1 [Example 30, 1-{3-[2-methyl-4-({(1R)-1-[2-methyl-3-(trifluoromethyl)phenyl]ethyl}amino)pyrido[2,3-d]pyrimidin-6-yl]-2,5-dihydro-1H-pyrrol-1-yl}ethan-1-one] |
| 5.15 | CC(=O)N1C[C@@H]2C[C@H]1CN2c1cnc2nc(C)nc(N[C@H](C)c3cccc(C(F)(F)F)c3C)c2c1 [Example 14, 1-{(1S,4S)-5-[2-methyl-4-({(1R)-1-[2-methyl-3-(trifluoromethyl)phenyl]ethyl}amino)pyrido[2,3-d]pyrimidin-6-yl]-2,5-diazabicyclo[2.2.1]heptan-2-yl}ethan-1-one] |
| 9.95 | Cc1nc(N[C@H](C)c2cccc(C(F)(F)F)c2C)c2cc(N3CC4(CN(C(N)=O)C4)C3)cnc2n1 [Example 48, 6-[2-methyl-4-({(1R)-1-[2-methyl-3-(trifluoromethyl)phenyl]ethyl}amino)pyrido[2,3-d]pyrimidin-6-yl]-2,6-diazaspiro[3.3]heptane-2-carboxamide] |
| 14.5 | CC(=O)N1CCC(c2cc3c(N[C@H](C)c4cccc(C(F)(F)C(C)(C)O)c4F)nc(C)nc3nc2C)=C(C)C1 [Example 62, 1-{4-[4-({(1R)-1-[3-(1,1-difluoro-2-hydroxy-2-methylpropyl)-2-fluorophenyl]ethyl}amino)-2,7-dimethylpyrido[2,3-d]pyrimidin-6-yl]-5-methyl-3,6-dihydropyridin-1(2H)-yl}ethan-1-one] |
| 3.55 | CC(=O)N1CCN(c2cnc3ncnc(N[C@H](C)c4cccc(C(F)(F)F)c4C)c3c2)CC1 [Example 10, 1-{4-[4-({(1R)-1-[2-methyl-3-(trifluoromethyl)phenyl]ethyl}amino)pyrido[2,3-d]pyrimidin-6-yl]piperazin-1-yl}ethan-1-one] |
| 409 | C[C@@H](Nc1ncnc2ncc(Br)cc12)c1cccc(C(F)(F)F)c1 [Example 1, 6-bromo-N-{(1R)-1-[3-(trifluoromethyl)phenyl]ethyl}pyrido[2,3-d]pyrimidin-4-amine] |
| 16.3 | CC(=O)N1CCN(c2cnc3ncnc(N[C@H](C)c4cccc(C(F)(F)F)c4)c3c2)CC1 [Example 4, 1-{4-[4-({(1R)-1-[3-(trifluoromethyl)phenyl]ethyl}amino)pyrido[2,3-d]pyrimidin-6-yl]piperazin-1-yl}ethan-1-one] |
| 4.35 | CC(=O)N1C[C@@H]2C[C@H]1CN2c1cc2c(N[C@H](C)c3cccc(C(F)(F)C(C)(C)O)c3F)nc(C)nc2nc1C [Example 64, 1-{(1 S,4S)-5-[4-({(1R)-1-[3-(1,1-difluoro-2-hydroxy-2-methylpropyl)-2-fluorophenyl]ethyl}amino)-2,7-dimethylpyrido[2,3-d]pyrimidin-6-yl]-2,5-diazabicyclo[2.2.1]heptan-2-yl}ethan-1-one] |
